Assay [1] concerns the target T1, H1R endogenously expressed in HeLa cells (Homo sapiens, UniProt P35367). As to the kind of experiment: DMR receptor recovery after washout. The note with it: 10x Ki pre-incubation, 1 h and 2 h after washout.
Description: For the measurement of DMR in HeLa cells upon treatment by agonists and antagonists, a resonant waveguide grating (RWG) biosensor method was used.
HeLa cells were grown in DMEM High Glucose medium with L-Glutamine supplemented with 10% FBS and 1x penicillin/streptomycin [all reagents were obtained from Capricorn Scientific GmbH (Ebsdorfergrund, Germany)] and incubated in humidified atmosphere at 37°C and 5% CO2 in air.
As vehicle control wells with medium/DMSO treated cells were included. The LFC plate was incubated overnight in a humidified atmosphere at 37°C and 5% CO2 in air. On the next day assay buffer [HBSS (Sigma–Aldrich), 20 mM HEPES (Sigma–Aldrich), 0.5% (v/v) DMSO] was adapted to room temperature before use. 22–24 h after cell seeding antagonists were removed from the LFC plate and wells were washed four times with label-free assay buffer (25 μL/ well). The total assay volume after the washing step was 30 μL/ well.
In all experiments a DMSO concentration of 0.5% (v/v) was not exceeded. The LFC plate was placed in an EnSpire® Multimode Plate Reader equipped with Corning® Epic® Label-free technology.
Data was analyzed individually for each quadrant of the 384 well LFC plate using GraphPad Prism.
Depicted values represent mean and standard deviation of two independent experiments.
For assay [2], the target named is T1, H1R endogenously expressed in HeLa cells. As to the kind of experiment: Receptor recovery of calcium mobilization after antagonist washout. It is filed as cell-based. Further details: HeLa cells, endogenously expressing the H1R at low, but physiological relevant densities, were used in both assays; endogenous in cells; host or cells: HeLa cells (in-house cell biobank). The following applies: for RecT (receptor recovery time), calcium mobilization: reciprocal of krec. The method, then: HeLa cells were cultured as described above. HeLa cells were lifted from a subconfluent dish by incubating with a 1x trypsin solution for 4 min. Cells were then seeded in a black, clear bottom 96-well plate, with 2 × 10^4 cells per well. Subsequently, the cells were pre-incubated overnight in culture medium with a range of antagonist concentrations or without antagonist, as is specified per assay format below. After 18–20 h, assay buffer was prepared by supplementing HBSS with 20 mM HEPES pH 7.4 and 2.5 mM probenecid (from a 2.5 × 10^-1 M stock in water). Dye solution was then prepared by dissolving one aliquot of Fluo4 NW in 22 mL assay buffer. Medium was aspirated and Fluo4 NW dye solution was supplemented to the cells and incubated for an hour at 37°C in the presence of the respective antagonist. After labeling the cells with Fluo4 NW, readout of the calcium response was measured per individual well in series.
One 96-well plate with HeLa cells was separated into four sections and each section was pre-incubated with a respective 10 times Ki concentrations of antihistamine or vehicle condition. […] Following Fluo4 NW loading in the presence of the respective concentration antihistamine, cells were washed and reconstituted in 100 μL assay buffer that was pre-heated to 37°C (t0). […] The first measurement was started approximately 2 min after washing the cells and subsequent wells were measured with 75 s intervals. […] The data was analyzed using non-linear regression with a one-phase association model in GraphPad Prism according to Eq. 3.
(3) Y=Y0+(Ymax−Y0)×(1−e^(−krec×t))
For all other antihistamines a free fit of Ymax was allowed, reported in the results as the steady-state recovery (%). Receptor recovery times (RecT) were calculated for each experiment as the reciprocal of the krec. Reported krec and RecT values are the mean ± SEM of ≥3 experiments.

Assay [3] shares this target.
Description: (1) normalizedfluorescentresponse=FHA−Fb/Ft−Fb
The AUC was quantified using GraphPad Prism (GraphPad Software, San Diego, CA, United States). Settings were as such that peaks were ignored when there was less than 1% difference between min and max fluorescence and/or peaks shaped by fewer than 10 data points. The resulting dose-response curves were analyzed by non-linear regression according to Eq. 2.
Assay [4] concerns H1R. Further details: method as in Slack et al., 2011a,b. The following applies: ex vivo organ bath, antagonists continuously removed; ref Slack et al., 2011a,b; cited from earlier work.
The target in assay [5] is T1, H1R endogenously expressed in HeLa cells. This is another data set of the same source.
The subject of assay [6] is H1R. Further details: method as in Gillard et al., 2002; Schoepke et al., 2013. The following applies: ref Gillard et al., 2002; Schoepke et al., 2013; cited from earlier work.
Where [7] appears, read: 10x Ki pre-incubation, washout, 37°C, mean ± SEM of ≥3.

Like-named read-outs stand apart in the source and are kept apart here.

T1 sequence (P35367 whole entry): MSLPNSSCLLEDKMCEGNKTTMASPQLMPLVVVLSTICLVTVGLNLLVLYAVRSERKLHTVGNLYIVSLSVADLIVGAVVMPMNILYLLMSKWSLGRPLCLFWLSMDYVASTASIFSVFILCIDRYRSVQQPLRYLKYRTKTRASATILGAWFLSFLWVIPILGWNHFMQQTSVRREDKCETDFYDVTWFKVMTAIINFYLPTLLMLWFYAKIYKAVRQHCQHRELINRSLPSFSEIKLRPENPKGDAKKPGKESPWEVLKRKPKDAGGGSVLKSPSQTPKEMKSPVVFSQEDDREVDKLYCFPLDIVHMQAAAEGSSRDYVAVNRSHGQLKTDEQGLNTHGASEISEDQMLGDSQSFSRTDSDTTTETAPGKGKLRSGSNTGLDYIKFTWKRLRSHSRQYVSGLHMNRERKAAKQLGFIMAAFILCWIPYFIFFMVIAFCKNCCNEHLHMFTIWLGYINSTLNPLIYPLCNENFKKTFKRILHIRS

In the case of `Cc1ccc(/C(=C\CN2CCCC2)c2ccccn2)cc1` [Triprolidine, triprolidine], the “insurmountable antagonism of histamine DMR response after washout (in words)” value (“insurmountable antagonism” for short) in assay [1] is “showed insurmountable antagonism, but this was the same at 1 and 2 h”.
Regarding `CN(C)CC/C=C1/c2ccccc2COc2ccc(CC(=O)O)cc21` [Olopatadine, olopatadine], in assay [2], the “krec (recovery rate of histamine induced calcium mobilization)” value came to 0.006 ± 0.001 min⁻¹ and the “recovery of histamine induced calcium mobilization after washout (in words)” value was “even more delayed”. In assay [2] (setting [7]), the “RecT (receptor recovery time), calcium mobilization” value is listed as 226 ± 60 min. Besides, in assay [1], the “insurmountable antagonism” value is on record as “pronounced” and the “suppression of maximal histamine DMR response after washout (in words)” value is reported as “suppressed the Emax up to 2 h”. Besides, in assay [3], the “antagonism of histamine-induced calcium mobilization after overnight pre-incubation (in words)” value was “full insurmountable inhibition”.
For `O=c1c2ccccc2c(Cc2ccc(Cl)cc2)nn1C[C@H]1CCCN1CCCCc1ccc(OCCCN2CCCCCC2)cc1` [GSK1004723], the “inhibition of histamine-induced, H1R mediated bronchial contraction (in words)” value in the assay on H1R [4] is “retained a long inhibition”.
Consider `NCCc1c[nH]cn1` [histamine], for which the “Hill slope of histamine, calcium mobilization” value in assay [3] amounted to 1.1 ± 0.1. For the same compound, the “Hill slope of histamine, DMR (AUC)” value in assay [5] (AUC) was 0.88. The “Hill slope of histamine, DMR (peak response)” value in assay [5] (peak response) is reported as 0.92.
On to `CN1CCCC(n2nc(Cc3ccc(Cl)cc3)c3ccccc3c2=O)CC1` (centres unmarked) [azelastine], for which the “inhibition of histamine-induced, H1R mediated bronchial contraction (in words)” value in the assay with H1R [4] is reported as “retained a long inhibition”.
With `O=C(O)COCCN1CCN([C@H](c2ccccc2)c2ccc(Cl)cc2)CC1` [Levocetirizine, levocetirizine], in assay [2] (10x Ki overnight pre-incubation, washout, 10^-5 M histamine, 37°C, mean ± SEM of ≥3), the “krec (recovery rate of histamine induced calcium mobilization)” value is 0.014 ± 0.003 min⁻¹. Besides, in assay [2] (10x Ki pre-incubation, 10^-5 M histamine), the “recovery of histamine induced calcium mobilization after washout (in words)” value is on record as “even more delayed”. Besides, the “Steady-state recovery (%)” value in assay [2] (fitted Ymax of histamine-induced calcium response after washout, relative to vehicle pre-treated cells) is recorded as 104 ± 10%. Besides, the “RecT (receptor recovery time), calcium mobilization” value in assay [2] (setting [7]) is 87 ± 20 min. In assay [1], the “insurmountable antagonism” value is given as “pronounced” and the “suppression of maximal histamine DMR response after washout (in words)” value is given as “suppressed the Emax up to 2 h”. Further, the “antagonism of histamine-induced calcium mobilization after overnight pre-incubation (in words)” value in assay [3] (HeLa cells, increasing antagonist and histamine concentrations) is recorded as “full insurmountable inhibition”. Also, the “in vivo efficacy after depletion of free concentrations in the blood (in words)” value with H1R [6] is recorded as “hysteresis of efficacy”.

The values are drawn from publication PMC5627017 (Frontiers in Pharmacology, 2017).
